We go through 14 compounds from PubChem BioAssay (NCI).

The structures appear in SMILES notation.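 Each compound was tested at five concentrations against cells in 96-well plates for 48 hours. The concentration for 50% growth inhibition is given as GI50. The concentration for full growth arrest is given as TGI.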

Among the test systems are ACHN renal; DU-145 prostate; EKVX NSCLC; HS 578T breast; M14 melanoma; MDA-MB-231 breast; PC-3 prostate; T-47D breast; SR leukemia; MDA-N.
What all share (assay): NCI anticancer screen, dose series, 48 h

For `Cc1cc(N/N=C/c2nc(-c3ccc(Cl)cc3)oc2C)c2cc(Br)ccc2n1`, the GI50 was 2.25 µM in the assay with ACHN renal; 2.66 µM in the assay on DU-145 prostate; 14.4 µM with EKVX NSCLC; 4.33 µM in the assay with HS 578T breast; 2.02 µM in the assay on M14 melanoma; 3.43 µM in the assay on MDA-MB-231 breast. The GI50 in the assay on PC-3 prostate was 2.31 µM; with T-47D breast, 1.79 µM. The TGI in the assay with ACHN renal was 5.01 µM; with DU-145 prostate it was 7.67 µM; in the assay on EKVX NSCLC, 28.1 µM; with HS 578T breast, 28.3 µM; in the assay with M14 melanoma, 4.55 µM; with MDA-MB-231 breast, 12 µM. The results for the TGI with PC-3 prostate and in the assay with T-47D breast were 6.07 µM and 3.51 µM, respectively.
With `c1cc2c3c(c1)c1cc4c(cc1c[n+]3CC2)OCO4`, the TGI in the assay with EKVX NSCLC is 14.4 µM.
`c1ccc2c(c1)NCc1cc3ccccc3nc1O2` returned a TGI in the assay with EKVX NSCLC greater than 100 µM.
In the case of `CCOc1cc(/C=C/C(=O)C(C(=O)/C=C/c2ccc(OC(=O)CNc3nc4ccccc4[nH]3)c(OCC)c2)C(=O)CNc2nc3ccccc3[nH]2)ccc1OC(=O)CNc1nc2ccccc2[nH]1`, the GI50 in the assay with ACHN renal is 2.31 µM; with DU-145 prostate it was 1.7 µM; in the assay on EKVX NSCLC, 1.99 µM; in the assay with HS 578T breast, 1.83 µM; with M14 melanoma, 2.14 µM; with MDA-MB-231 breast, 2.39 µM. The GI50 in the assay on PC-3 prostate is 2.12 µM; in the assay on SR leukemia, 0.788 µM; with T-47D breast, 2.86 µM. The TGI with ACHN renal turned out to be 6.68 µM; with DU-145 prostate, 3.72 µM; with EKVX NSCLC it was 5.37 µM; in the assay on HS 578T breast it was 5.18 µM; with M14 melanoma it was 6.76 µM; in the assay on MDA-MB-231 breast, 7.29 µM. The TGI was 6.23 µM with PC-3 prostate, 2.53 µM with SR leukemia and 14.9 µM with T-47D breast.
For the compound `COc1ccc(C2=[S+]C(c3ccccc3)(c3ccccc3)c3ccccc32)cc1`, the TGI in the assay on ACHN renal is 86.1 µM; in the assay with DU-145 prostate, 65.7 µM; in the assay on EKVX NSCLC it was greater than 100 µM; in the assay on HS 578T breast it was 68 µM; with M14 melanoma it was 31.4 µM; in the assay on MDA-MB-231 breast, 61.1 µM. In addition, the TGI with MDA-N was 54.5 µM; in the assay with PC-3 prostate, greater than 100 µM; in the assay with T-47D breast, 84.3 µM.
Turning to `O=C(N/N=C\c1cccc2ccccc12)Nc1ccccc1`, the TGI in the assay on DU-145 prostate, with HS 578T breast, in the assay with M14 melanoma, with MDA-N, with PC-3 prostate and in the assay with SR leukemia was greater than 100 µM each time. Further, the TGI in the assay on T-47D breast is greater than 100 µM.
Turning to `C/C(=N\NC(=O)c1ccc(Cl)cc1)c1nc2ncccc2[nH]1`, the TGI in the assay with ACHN renal was 44.7 µM; with DU-145 prostate, greater than 100 µM; with EKVX NSCLC, greater than 100 µM; in the assay with HS 578T breast, 93.5 µM; in the assay with M14 melanoma, greater than 100 µM; with MDA-MB-231 breast it was greater than 100 µM. Also, the TGI in the assay on MDA-N, with PC-3 prostate, in the assay on SR leukemia and with T-47D breast was greater than 100 µM each time.
Take `Cc1cn(-c2cccc(NC(=O)c3ccc(C)c(Nc4nccc(-c5cccnc5)n4)c3)c2)cn1`: the GI50 with ACHN renal is 1.69 µM; in the assay on DU-145 prostate, 3.73 µM; in the assay on EKVX NSCLC, 2.16 µM; with HS 578T breast, 1.77 µM; in the assay with M14 melanoma, 2.08 µM; in the assay on MDA-MB-231 breast it was 1.63 µM. For the same compound, the values for the GI50 in the assay with PC-3 prostate, in the assay with SR leukemia and in the assay on T-47D breast were 2.33 µM, 2.08 µM and 1.42 µM, respectively. Also, the TGI turned out to be 3.17 µM in the assay on ACHN renal; 17.9 µM in the assay with DU-145 prostate; 6 µM in the assay on EKVX NSCLC; 5.43 µM in the assay on HS 578T breast; 5.47 µM with M14 melanoma; 3.46 µM in the assay on MDA-MB-231 breast. For the same compound, the values for the TGI in the assay with PC-3 prostate, in the assay on SR leukemia and with T-47D breast were 13.5 µM, 5.02 µM and 9.6 µM, respectively.
Regarding `CCOC(=O)/C=C/c1c(C)[nH]c(=O)[nH]c1=O`, the TGI in the assay with EKVX NSCLC is greater than 250 µM.
For the compound `COc1cc(-c2ccc(N=Nc3ccc4c(S(=O)(=O)O)cc(S(=O)(=O)O)c(N)c4c3O)c(OC)c2)ccc1N=Nc1ccc2c(S(=O)(=O)O)cc(S(=O)(=O)O)c(N)c2c1O`, in the assay with EKVX NSCLC, the TGI was greater than 100 µM.
On to `O=C1CCC[C@H]2O[C@@H](COC(=O)c3ccccc3)C[C@H]2O1`, for which the TGI in the assay on ACHN renal, with DU-145 prostate, in the assay with EKVX NSCLC, in the assay on HS 578T breast, in the assay on M14 melanoma and with MDA-MB-231 breast was greater than 100 µM each time. The TGI with MDA-N, in the assay with PC-3 prostate, in the assay on SR leukemia and in the assay with T-47D breast was greater than 100 µM each time.
With `Cc1ccc(Cl)cc1N=NC(=O)NNc1cc(Cl)ccc1C`, the TGI in the assay on DU-145 prostate was 58.3 µM; in the assay with HS 578T breast it was 54.8 µM; with M14 melanoma, 34.7 µM; in the assay with MDA-MB-231 breast, 40.3 µM; with MDA-N it was greater than 100 µM; in the assay with PC-3 prostate it was 46.3 µM. Moreover, the TGI in the assay on SR leukemia and in the assay with T-47D breast was greater than 100 µM throughout.
As for `COc1cccc2c1C(=O)c1c(O)c3c(c(O)c1C2=O)C[C@@](O)(C(=O)COC(=O)c1ccccc1)C[C@@H]3OC1CC(N)C(O)C(C)O1` (stereo not given in full), the GI50 with ACHN renal is 0.0925 µM; in the assay on DU-145 prostate, 0.252 µM; in the assay on M14 melanoma, 0.21 µM; in the assay on MDA-MB-231 breast, 0.376 µM; in the assay with PC-3 prostate it was 0.194 µM. The TGI in the assay with ACHN renal was 0.457 µM; with DU-145 prostate, 1.1 µM; with M14 melanoma, 1.35 µM; with MDA-MB-231 breast, 1.79 µM; in the assay on PC-3 prostate it was 0.744 µM; in the assay with SR leukemia, 0.225 µM.
Turning to `CCOC(=O)NC(Nc1cc(Cl)ccc1OC)(C(F)(F)F)C(F)(F)F`, the TGI in the assay on ACHN renal, with DU-145 prostate, in the assay on EKVX NSCLC, with HS 578T breast, in the assay on M14 melanoma and in the assay with MDA-MB-231 breast was greater than 100 µM each time. The TGI in the assay on MDA-N, with SR leukemia and in the assay on T-47D breast was greater than 100 µM each time.
